According to patent US7803559B1, “Protein aggregation regulators” (The Regents of the University of CA, priority 2003, dated 2010):
Counter-ions that a name gives are not always drawn.

Tested on: ARN127(65)CFP/YFP
Experiment: Secondary screen using the AR FRET assay
Type: cell-based, human
Conditions: not given
Procedure: Selected candidate compounds and/or libraries of compounds were screened as follows. Daughter plates were created in duplicate from the 384-well microtiter plates that contained the compounds at a concentration of 80 μg/ml. […] To screen a library, HEK293 cells stably expressing RFP were plated in 10 cm plates to obtain ˜80% confluency on the day of transfection. Each plate was transfected with 2 μg of ARN127(65)CFP/YFP each, and 0.7 μg p6RGRΔ using 50 μL Plus Reagent™ and 76 μL Lipofectamine™ according to manufacturer's protocol (Invitrogen). After 3 hours, complete medium was added and the plates were incubated further for 3 hours. […] The cells were then cultured for ˜48 hours to allow aggregate formation. After fixing the cells FRET signal was measured using a SAFIRE Fluorescence Plate Reader (Tecan, Inc.) according to methods described above. Several internal controls were used to standardize each experiment. Mock transfected cells were used to control for background autofluorescence and light scattering by mammalian cells. To control for CFP bleedthrough and crossover excitation of YFP, additional wells contained cells expressing ARN127(25)CFP or ARN127(25)YFP alone. RFP was measured to control for non-specific effects on steady-state protein levels. ARN127(25)CFP/YFP expression served as a reference point for background FRET levels without aggregation (a theoretical maximum effect on aggregation inhibition). FRET measurements for each experiment were thus scaled between 100% (cells with no drug treatment) and 0% (FRET levels from unexpanded protein).
Selected candidate compounds from the primary screen of all three libraries were assayed again in a secondary screen using the AR FRET assay.
Finally, the role of F-actin in preventing polyglutamine aggregation was investigated by treating cells with two agents that prevent actin depolymerization: phalloidin and jasplakinolide.

In the case of “(2-hydroxyethyl) trimethylammonium chloride carbamate [Carbachol]”, the “Max % Inhibition” value is reported as 20%.

Same assay, conditions: agents that prevent actin depolymerization, Table 5

Point of comparison: Phalloidin, “Max % Inhibition” value 35%. Against it:
- C/C1=C\[C@H](C)C[C@H](C)OC(=O)C[C@H](c2ccc(O)cc2)NC(=O)[C@@H](Cc2c(Br)[nH]c3ccccc23)N(C)C(=O)[C@H](C)NC(=O)[C@@H](C)C1 [Jasplakinolide] — lower, 30%

Same assay, conditions: secondary screen, AR FRET assay, Table 3

Point of comparison: CCCCC/C=C\C/C=C\C/C=C\C/C=C\CCCC(=O)O [Arachidonic acid, cis,cis,cis,cis-5,8,11,14-Eicosatetraenoic aci], “Max % Inhibition” value 19%. Against it:
- COc1cc(C)c(C(=O)Oc2cc(C)c(C(=O)O)c(O)c2C)c(OC)c1C [Diffractic acid, 4-[(2,4-dimethoxy-3,6-dimethylbenzoyl)-oxy]-2-hydroxy-3,6-dimethylbenzoic acid] — higher, 20%
- NS(=O)(=O)c1cc2c(cc1Cl)N=CNS2(=O)=O [Chlorothiazide, 6-Chloro-2H-1,2,4-benzothiadiazine-7-sulfonamide 1,1-dioxide] — the same, 19%
- CC(C)(C)NCC(O)COc1cccc2c1CC(O)C(O)C2 (stereo not drawn) [Nadolol] — the same, 19%
- CNCCc1ccccn1.Cl.Cl [Betahistine hydrochloride, N-methyl-N-(2-pyridin-2-ylethyl)amine dihydrochloride] — the same, 19%
- O=C(O)c1ccccc1OP(=O)(O)O [Fosfosal, 2-phosphonooxybenzoic acid] — higher, 23%
- COc1cc2ncnc(Nc3ccc(F)c(Cl)c3)c2cc1OC(C)=O [Compound 3, Acetic acid 4-(3-chloro-4-fluoro-phenylamino)-7-methoxy-quinazolin-6-yl ester] — higher, 30%
- COc1ccc2c(c1OC)C(=O)O[C@H]2[C@@H]1c2cc3c(cc2CCN1C)OCO3 [1S,9R-beta hydrastine, 1S,9R-(+)-beta hydrastine] — lower, 18%
- COc1ccc([C@@H]2Sc3ccccc3N(CCN(C)C)C(=O)[C@@H]2OC(C)=O)cc1.Cl (relative stereo) [Diltiazem HCl, (2S,3S)-(+)-cis-3-Acetoxy-5-(2-dimethylaminoethyl)-2,3-dihydro-2-(4-methoxyphenyl)-1,5-benzothiazepin-4(5H)-one hydrochloride] — higher, 22%
- DL-alanine,2,4-chlorophenyl-1,1-dimethylethyl ester [Alaproclate] — lower, 17%
- O=C1CC(c2ccc(O)cc2)Oc2cc(O)cc(O)c21 (racemic) [Naringenin, (±)-2,3-Dihydro-5,7-dihydroxy-2-(4-hydroxyphenyl)-4H-1-benzopyran-4-one] — the same, 19%
- CC1=CC(=O)C2=C(C)CCC3[C@H](C)C(=O)O[C@@H]3[C@H]12 (stereo partly drawn) [Leucodin, (3S,9aR,9bS)-3,6,9-trimethyl-3,3a,4,5,9a,9b-hexahydroazuleno-[4,5-b]furan-2,7-dione] — higher, 23%
- COc1cc2nc[nH]c(=O)c2cc1OC(C)=O [Compound 4, Acetic acid 7-methoxy-4-oxo-3,4-dihydro-quinazolin-6-yl ester] — higher, 28%
- Cc1cc(-c2ccccc2)nnc1NCCN1CCOCC1 [Minaprine HCl, N-(4-Methyl-6-phenyl-3-pyridazinyl)-4-morpholineethanamin] — lower, 18%
- N,N-bis(4-aminobutyl)amine [Spermidine HCl] — the same, 19%
- CCOC(=O)Nc1c[n+](N2CCOCC2)no1 [Molsidomine, N-(Ethoxycarbonyl)-3-(4-morpholino)sydnone imine] — higher, 20%

Molecular target: T1, htt(72)CFP/YFP (Homo sapiens, UniProt P42858, INS38QQQQQQQQQQQQQQQQQQQQQQQQQQQQQQQQQQQQQQQQQQQQQQQQQQQ)
T1 construct: htt exon 1 fragment derived from plasmid qp72; expressed in transfected cells; host or cells: HEK293
T1 sequence (P42858 with tags, fused parts or gaps, stated change not applied): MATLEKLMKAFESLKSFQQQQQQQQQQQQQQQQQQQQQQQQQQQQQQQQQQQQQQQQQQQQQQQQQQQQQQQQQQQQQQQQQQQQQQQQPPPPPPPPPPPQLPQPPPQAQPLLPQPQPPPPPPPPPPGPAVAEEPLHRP
Experiment: FRET based assay of htt aggregation
Type: cell-based
Conditions: HEK293, htt(72)CFP/YFP, 24 hours
Procedure: Aggregation of htt was monitored using the FPR FRET based HTS described herein for assaying aggregation of AR, using plasmids with htt exon 1-CFP and -YFP fusions containing 72 repeats (htt(72)CFP/YFP). HEK293 cells were transfected with htt(72)CFP/YFP as above, and cells were plated into a 96-well dish in the presence or absence of various concentrations of test compounds. After 24 hours, cells were fixed in 4% paraformaldehyde, and FRET signal was determined from the cell monolayers by reading on the FPR.

Point of comparison: COc1cc2ncnc(Nc3ccc(F)c(Cl)c3)c2cc1OCCCN1CCOCC1 [Iressa, (3-Chloro-4-fluoro-phenyl)-[7-methoxy-6-(3-morpholin-4-yl-propoxy)-quinazolin-4-yl]-amine], “Max % Inh. in Htt” value 20%. Against it:
- COc1cc2ncnc(Nc3ccc(F)c(Cl)c3)c2cc1OC(C)=O [Compound 3, Acetic acid 4-(3-chloro-4-fluoro-phenylamino)-7-methoxy-quinazolin-6-yl ester] — higher, 21%
- COc1cc2nc[nH]c(=O)c2cc1OC(C)=O [Compound 4, Acetic acid 7-methoxy-4-oxo-3,4-dihydro-quinazolin-6-yl ester] — lower, 15%

Tested on: ARN127(65)CFP/YFP
Experiment: Primary high-throughput AR FRET screen of three libraries
Type: cell-based, human
Conditions: compounds at 4 μg/ml, HEK293, ARN127(65)CFP/YFP + GRΔ, 100 nM dex, ~48 hours
Procedure: (§1) Selected candidate compounds and/or libraries of compounds were screened as follows. Daughter plates were created in duplicate from the 384-well microtiter plates that contained the compounds at a concentration of 80 μg/ml. Compounds were aliquoted in 96-well plates (Costar™ 3603) at a concentration at which most of the compounds are active, but are not toxic to the cells (e.g., of 4 μg/ml). To screen a library, HEK293 cells stably expressing RFP were plated in 10 cm plates to obtain ˜80% confluency on the day of transfection. Each plate was transfected with 2 μg of ARN127(65)CFP/YFP each, and 0.7 μg p6RGRΔ using 50 μL Plus Reagent™ and 76 μL Lipofectamine™ according to manufacturer's protocol (Invitrogen). After 3 hours, complete medium was added and the plates were incubated further for 3 hours. […] The cells were then cultured for ˜48 hours to allow aggregate formation. After fixing the cells FRET signal was measured using a SAFIRE Fluorescence Plate Reader (Tecan, Inc.) according to methods described above. Several internal controls were used to standardize each experiment. Mock transfected cells were used to control for background autofluorescence and light scattering by mammalian cells. To control for CFP bleedthrough and crossover excitation of YFP, additional wells contained cells expressing ARN127(25)CFP or ARN127(25)YFP alone. RFP was measured to control for non-specific effects on steady-state protein levels. ARN127(25)CFP/YFP expression served as a reference point for background FRET levels without aggregation (a theoretical maximum effect on aggregation inhibition). FRET measurements for each experiment were thus scaled between 100% (cells with no drug treatment) and 0% (FRET levels from unexpanded protein). Last, each plate also contained wells treated with Y-27632 (50 μM) as a positive control.
as §1, with “Daughter” for “Selected candidate compounds and/or libraries of compounds were screened as follows. Daughter”, “a single concentration, e.g.,” for “a concentration of”, “concentration of 4 μg/ml,” for “concentration”, “the cells.” for “the cells (e.g., of 4 μg/ml).”, “screen the” for “screen a”

Point of comparison: Cl.NC[C@@H]1O[C@H](C23CC4CC(CC(C4)C2)C3)Cc2c1ccc(O)c2O [A-77636 hydrochloride], “% Inhibition” value 64%. Against it:
- CO[C@@H]1O[C@H](CO)[C@H](O)[C@H](O[C@@H]2O[C@H](CO)[C@@H](O)[C@H](O)[C@H]2NC(C)=O)[C@H]1O [Methyl 3-O-(2-Acetamido-2-Deoxy-B-D-Glucopyranosyl)-B-D-Galactopyranoside] — higher, 70%
- NCc1ccc(Cl)cc1Cl [2,4-Dichlorobenzylamine] — higher, 85%
- Cn1cnc([N+](=O)[O-])c1Sc1ncnc2nc[nH]c12 [Azathioprine] — higher, 74.5%
- NCCCCCCNS(=O)(=O)c1cccc2ccccc12 [N-6-Aminohexyl-1-Naphthalenesulfonamide] — higher, 79.7%
- O=c1ncnc2n([C@H]3O[C@@H](CO)[C@H](O)[C@@H]3O)[nH]cc1-2 (stereo in doubt) [Allopurinol riboside] — higher, 71.8%
- Nc1ccc(S(=O)(=O)Nc2ncccn2)cc1 [Sulfadiaine Free Acid] — higher, 80%
- COC1=C2CC[C@@H]3[C@H](CC[C@]4(C)C(=O)CC[C@@H]34)[C@@]2(C)CCC1=O [4-Androsten-4-ol-3,17-dione 4-methyl ether] — higher, 65.3%
- Cc1ccc(S(=O)(=O)N[C@@H](CCC(N)=O)C(=O)OC(C)C)cc1 [N-(P-Tosyl)-L-Glutamine Isopropyl Ester] — higher, 80.6%
- NC(N)=NCCC[C@H](N)C(=O)C[C@@H](Cc1ccc(O)cc1)C(=O)O.NC(N)=NCCC[C@H](N)C(=O)C[C@@H](Cc1ccc(O)cc1)C(=O)O.O=S(=O)(O)O [Arphamenine B Hemisulfate Salt: Hydrate] — higher, 69.7%
- Cc1nnc(SCC2=C(C(=O)O)N3C(=O)[C@@H](NC(=O)Cn4cnnn4)[C@H]3SC2)s1 [Cefazolin sodium] — higher, 70%
- Nc1nc2c(nc(Br)n2[C@@H]2O[C@@H]3COP(=O)([O-])O[C@H]3[C@H]2O)c(=O)[nH]1.[Na+] [8-Bromoguanosine 3′,5′-cyclic monophosphate sodium salt] — higher, 71%
- Cytosine beta-D-arabinofuranoside Hydrochloride — higher, 81%
- L-Canavanine Free Base — higher, 73%
